Assay: xn = mol fraction of the nth substance listed
Conditions: 102 kPa, Liquid; for mass density: Vibrating tube method; for viscosity: Concentric cylinders viscometry; for speed of sound: Frequency=3 MHz, Single path-length method

CC(CC(C)(C)C)CC(C)(C)C [2,2,4,6,6-pentamethylheptane] + CCCCCCc1ccccc1
Conditions	mass density, 303.15 K [kg/m3]	mass density, 313.15 K [kg/m3]	mass density, 323.15 K [kg/m3]	mass density, 333.15 K [kg/m3]	speed of sound, 313.15 K [m/s]	speed of sound, 323.15 K [m/s]	speed of sound, 333.15 K [m/s]	viscosity, 313.15 K [mPa·s]	viscosity, 323.15 K [mPa·s]	viscosity, 333.15 K [mPa·s]
x2 = 0.1	747.53	740.2	732.84	725.44	1141.9	1104.7	1068.5	0.957	0.848	0.749
x2 = 0.2065	758.19	750.84	743.45	736.04	1159.3	1122.2	1085.8	0.962	0.853	0.753
x2 = 0.3009	767.96	760.6	753.21	745.77	1174	1136.9	1101	0.967	0.861	0.758
x2 = 0.3968	778.14	770.75	763.34	755.89	1189.7	1152.8	1117	0.979	0.873	0.768
x2 = 0.5001	789.48	782.06	774.63	767.15	–	–	–	–	–	–
x2 = 0.5004	–	–	–	–	1207.2	1170.4	1134.6	1	0.889	0.783
x2 = 0.6	800.94	793.5	786.03	778.54	1224.7	1188.1	1152.5	1.02	0.911	0.803
x2 = 0.6998	812.8	805.33	797.82	790.29	1243	1206.4	1170.8	1.06	0.943	0.828
x2 = 0.7997	825.06	817.55	810.01	802.45	1261.7	1225.2	1189.6	1.09	0.964	0.844
x2 = 0.8999	837.82	830.26	822.68	815.08	1281	1244.6	1209.1	1.12	0.992	0.87

From the NIST ThermoML archive (doi:10.1021/acs.jced.8b00387)
